Source: the NIST ThermoML archive (doi:10.1021/je800110r)

Conditions: Liquid, Vibrating tube method

CCCCCCCCCC [decane]
Conditions	mass density [kg/m3]
323.15 K, 19981 kPa	723.9
323.15 K, 20414 kPa	724.1
323.15 K, 20537 kPa	724.2
323.15 K, 20652 kPa	724.2
323.15 K, 20695 kPa	724.1
323.15 K, 20721 kPa	724.3
323.15 K, 20740 kPa	724.4
323.15 K, 20766 kPa	724.4
323.15 K, 20799 kPa	724.3
323.15 K, 20826 kPa	724.5
323.15 K, 20842 kPa	724.5
323.15 K, 20862 kPa	724.5
323.15 K, 20893 kPa	724.5
323.15 K, 20916 kPa	724.4
323.15 K, 20949 kPa	724.5
323.15 K, 20970 kPa	724.6
323.15 K, 20990 kPa	724.5
323.15 K, 21020 kPa	724.4
323.15 K, 21044 kPa	724.5
323.15 K, 21064 kPa	724.7
323.15 K, 21088 kPa	724.5
323.15 K, 21254 kPa	724.7
323.15 K, 21289 kPa	724.7
323.15 K, 21309 kPa	724.8
323.15 K, 21334 kPa	724.7
323.15 K, 21558 kPa	724.9
323.15 K, 21597 kPa	725
323.15 K, 21615 kPa	724.9
323.15 K, 21681 kPa	725
323.15 K, 21707 kPa	725.1
323.15 K, 21732 kPa	725.1
323.15 K, 21754 kPa	725.1
323.15 K, 21790 kPa	725.1
323.15 K, 21819 kPa	725.1
323.15 K, 21845 kPa	725.1
323.15 K, 21867 kPa	725.2
323.15 K, 21896 kPa	725.2
323.15 K, 21926 kPa	725.2
323.15 K, 21955 kPa	725.2
323.15 K, 21989 kPa	725.3
323.15 K, 22012 kPa	725.3
323.15 K, 22035 kPa	725.2
323.15 K, 22072 kPa	725.4
323.15 K, 22094 kPa	725.2
323.15 K, 22131 kPa	725.4
323.15 K, 22154 kPa	725.4
323.15 K, 22183 kPa	725.4
323.15 K, 22207 kPa	725.4
323.15 K, 22236 kPa	725.3
323.15 K, 22271 kPa	725.5
323.15 K, 22302 kPa	725.5
323.15 K, 22328 kPa	725.5
323.15 K, 22359 kPa	725.5
323.15 K, 22383 kPa	725.5
323.15 K, 22410 kPa	725.6
323.15 K, 22448 kPa	725.6
323.15 K, 22471 kPa	725.6
323.15 K, 22498 kPa	725.7
323.15 K, 22533 kPa	725.6
323.15 K, 22563 kPa	725.7
323.15 K, 22583 kPa	725.8
323.15 K, 22622 kPa	725.6
323.15 K, 22654 kPa	725.8
323.15 K, 22682 kPa	725.7
323.15 K, 23638 kPa	726.6
323.15 K, 23679 kPa	726.7
323.15 K, 24027 kPa	726.8
323.15 K, 24056 kPa	726.8
323.15 K, 24083 kPa	726.8
323.15 K, 24123 kPa	726.9
323.15 K, 24146 kPa	726.8
323.15 K, 24177 kPa	726.9
323.15 K, 24209 kPa	727
323.15 K, 24240 kPa	726.9
323.15 K, 24281 kPa	727
323.15 K, 24323 kPa	727
323.15 K, 24359 kPa	727
323.15 K, 24392 kPa	727
323.15 K, 24425 kPa	727
323.15 K, 24463 kPa	727
323.15 K, 24511 kPa	727.1
323.15 K, 24544 kPa	727.1
323.15 K, 24568 kPa	727.3
323.15 K, 24605 kPa	727.2
323.15 K, 24671 kPa	727.3
323.15 K, 25856 kPa	728
323.15 K, 25903 kPa	728.1
323.15 K, 25945 kPa	728.2
323.15 K, 25978 kPa	728.2
323.15 K, 26015 kPa	728.1
323.15 K, 26052 kPa	728.2
323.15 K, 26084 kPa	728.3
323.15 K, 26113 kPa	728.2
323.15 K, 26150 kPa	728.3
323.15 K, 26239 kPa	728.3
323.15 K, 26279 kPa	728.4
323.15 K, 26309 kPa	728.5
323.15 K, 26382 kPa	728.5
323.15 K, 26425 kPa	728.4
323.15 K, 26468 kPa	728.7
323.15 K, 26506 kPa	728.5
323.15 K, 26540 kPa	728.6
323.15 K, 26579 kPa	728.6
323.15 K, 26618 kPa	728.6
323.15 K, 26657 kPa	728.8
323.15 K, 26692 kPa	728.7
323.15 K, 27084 kPa	728.9
323.15 K, 27120 kPa	729
323.15 K, 27152 kPa	729.1
323.15 K, 27187 kPa	729.1
323.15 K, 27223 kPa	729.1
323.15 K, 27259 kPa	729.1
323.15 K, 27290 kPa	729.1
323.15 K, 27331 kPa	729.1
323.15 K, 27727 kPa	729.5
323.15 K, 27833 kPa	729.5
323.15 K, 28265 kPa	729.7
323.15 K, 28432 kPa	729.9
323.15 K, 29106 kPa	730.4
323.15 K, 29187 kPa	730.5
323.15 K, 29218 kPa	730.5
323.15 K, 29260 kPa	730.5
323.15 K, 29336 kPa	730.6
323.15 K, 29452 kPa	730.6
323.15 K, 29479 kPa	730.7
323.15 K, 29510 kPa	730.7
323.15 K, 29547 kPa	730.7
323.15 K, 29594 kPa	730.7
323.15 K, 31137 kPa	731.8
323.15 K, 31166 kPa	731.8
323.15 K, 31206 kPa	731.8
323.15 K, 32493 kPa	732.8
323.15 K, 32550 kPa	732.8
323.15 K, 32582 kPa	732.7
323.15 K, 32606 kPa	732.8
323.15 K, 32634 kPa	732.8
323.15 K, 32659 kPa	732.7
323.15 K, 32682 kPa	732.9
323.15 K, 32750 kPa	733
323.15 K, 32786 kPa	733
323.15 K, 32870 kPa	732.9
323.15 K, 33409 kPa	733.4
323.15 K, 33442 kPa	733.3
323.15 K, 33464 kPa	733.5
323.15 K, 33482 kPa	733.3
323.15 K, 33530 kPa	733.5
323.15 K, 33575 kPa	733.5
323.15 K, 33593 kPa	733.4
323.15 K, 34001 kPa	733.8
323.15 K, 34025 kPa	733.8
323.15 K, 34059 kPa	733.8
323.15 K, 34079 kPa	733.8
323.15 K, 34114 kPa	733.9
323.15 K, 34138 kPa	733.8
323.15 K, 34175 kPa	734
323.15 K, 34199 kPa	733.8
323.15 K, 34237 kPa	733.8
323.15 K, 34400 kPa	734
323.15 K, 34425 kPa	734.1
323.15 K, 34440 kPa	734
323.15 K, 34451 kPa	734.1
323.15 K, 34456 kPa	734
323.15 K, 34460 kPa	734.2
323.15 K, 34463 kPa	734.1
323.15 K, 34464 kPa	734.1
323.16 K, 356 kPa	707.2
323.16 K, 379 kPa	707.1
323.16 K, 400 kPa	707.2
323.16 K, 417 kPa	707.2
323.16 K, 438 kPa	707.2
323.16 K, 464 kPa	707.2
323.16 K, 488 kPa	707.3
323.16 K, 517 kPa	707.3
323.16 K, 541 kPa	707.3
323.16 K, 575 kPa	707.3
323.16 K, 612 kPa	707.4
323.16 K, 646 kPa	707.4
323.16 K, 728 kPa	707.6
323.16 K, 944 kPa	707.8
323.16 K, 1001 kPa	707.8
323.16 K, 1024 kPa	707.7
323.16 K, 1047 kPa	707.8
323.16 K, 1070 kPa	707.8
323.16 K, 1102 kPa	707.8
323.16 K, 1211 kPa	708
323.16 K, 1244 kPa	708
323.16 K, 1280 kPa	708.1
323.16 K, 1314 kPa	708
323.16 K, 1337 kPa	708.2
323.16 K, 1362 kPa	708.2
323.16 K, 1381 kPa	708.2
323.16 K, 1405 kPa	708.1
323.16 K, 1427 kPa	708.2
323.16 K, 1453 kPa	708.3
323.16 K, 1479 kPa	708.2
323.16 K, 1503 kPa	708.2
323.16 K, 1524 kPa	708.3
323.16 K, 1553 kPa	708.2
323.16 K, 1582 kPa	708.2
323.16 K, 1608 kPa	708.4
323.16 K, 1630 kPa	708.4
323.16 K, 1671 kPa	708.3
323.16 K, 1694 kPa	708.4
323.16 K, 1723 kPa	708.5
323.16 K, 1748 kPa	708.5
323.16 K, 1778 kPa	708.5
323.16 K, 1812 kPa	708.4
323.16 K, 1848 kPa	708.5
323.16 K, 1871 kPa	708.5
323.16 K, 1898 kPa	708.7
323.16 K, 1945 kPa	708.7
323.16 K, 1973 kPa	708.7
323.16 K, 2008 kPa	708.6
323.16 K, 2050 kPa	708.7
323.16 K, 2081 kPa	708.7
323.16 K, 2113 kPa	708.8
323.16 K, 2151 kPa	708.7
323.16 K, 2201 kPa	708.9
323.16 K, 2247 kPa	708.9
323.16 K, 2281 kPa	708.8
323.16 K, 2332 kPa	708.9
323.16 K, 2405 kPa	709.1
323.16 K, 2718 kPa	709.4
323.16 K, 2738 kPa	709.3
323.16 K, 2755 kPa	709.4
323.16 K, 2772 kPa	709.4
323.16 K, 2789 kPa	709.5
323.16 K, 2809 kPa	709.5
323.16 K, 2845 kPa	709.6
333.14 K, 21082 kPa	717.8
333.14 K, 21129 kPa	717.8
333.14 K, 26540 kPa	722.1
333.14 K, 26569 kPa	722.1
333.14 K, 26609 kPa	722
333.14 K, 26648 kPa	722.2
333.14 K, 26696 kPa	722.2
333.14 K, 26733 kPa	722.2
333.14 K, 26773 kPa	722.3
333.14 K, 26813 kPa	722.3
333.14 K, 26859 kPa	722.4
333.14 K, 26912 kPa	722.4
333.14 K, 26958 kPa	722.4
333.14 K, 26993 kPa	722.4
333.14 K, 27039 kPa	722.4
333.14 K, 27087 kPa	722.4
333.14 K, 27129 kPa	722.6
333.14 K, 27171 kPa	722.5
333.14 K, 27219 kPa	722.5
333.14 K, 30020 kPa	724.6
333.14 K, 30058 kPa	724.6
333.14 K, 30100 kPa	724.7
333.14 K, 30134 kPa	724.7
333.14 K, 30168 kPa	724.7
333.14 K, 30197 kPa	724.7
333.14 K, 30227 kPa	724.8
333.14 K, 30265 kPa	724.9
333.14 K, 30291 kPa	724.8
333.14 K, 30312 kPa	724.8
333.14 K, 30350 kPa	724.9
333.14 K, 30376 kPa	724.8
333.14 K, 30402 kPa	724.9
333.14 K, 30432 kPa	724.9
333.14 K, 30458 kPa	724.9
333.14 K, 30480 kPa	725
333.14 K, 30502 kPa	725
333.14 K, 30528 kPa	725
333.14 K, 30566 kPa	725
333.14 K, 30592 kPa	724.9
333.14 K, 30623 kPa	725
333.14 K, 30654 kPa	725.2
333.14 K, 30689 kPa	725.2
333.14 K, 31374 kPa	725.5
333.14 K, 31402 kPa	725.6
333.14 K, 31439 kPa	725.6
